According to patent US4430342A, “N-Acyl-3-[4-(benzoylalkyl)piperazin-1-yl]-sydnonimine compound, process for prodction thereof, and use thereof” (Hidaka; Hiroyoshi, priority 1981, dated 1984):
Values after ≈ are worked out from the molar mass of the structure shown. Where a name gives a salt, the structure may show the parent alone. Read-outs that look alike come from different tables or passages of the source. Values belong to the molecule of their own block, whether it stands above or below them.

How the values were obtained:
[1] = solubility in water, dilute hydrochloric acid and Carmody's buffer by absorbance at 317 nm; assay type: physicochemical; details: 25° C.
Procedure: The solubility of the N-ethoxycarbonyl-3-[4-(4-benzoylbutyl)piperazin-1-yl]sydnonimine obtained in Example 1 in water dilute hydrochloric acid and the Carmody's buffer was measured by the absorbance of the solution at 317 nm.

[2] = acute toxicity in male dd-strain mice; details: mouse, in vivo
Procedure: The acute toxicity of the in vivo active type of this typical compound as a prodrug was tested by using male dd-strain mice (body weight 16 to 20 g).

[3] = system: extracted heart of a guinea pig; assay: coronary blood flow, Langendorf's method, extracted heart; details: 0.1 ml of 10^-4 g/ml solution injected
Procedure: The increase or decrease of the coronary blood flow was examined by the Langendorf's method using the extracted heart of a guinea pig. […] On the other hand, when 0.1 ml of morsydmine (10^-4 g/ml solution) was injected, no increase in the coronary blood flow was observed.

[4] = water solubility of the salts; assay type: physicochemical
[5] = system: extracted mesenteric artery of a rabbit; assay: mesenteric artery relaxing activity, in vitro (extracted artery); details: Oryctolagus cuniculus, read-out: Mesenteric artery relaxing activity (50% of the maximum relaxation)
From the text: (§1) Table 1 summarizes the results of in vitro tests in which the human platelet aggregation inyibitory activity of the 3-[4-(benzoylalkyl)piperazin-1-yl]sydnonimines of formula (2) and their relaxing activity on the extracted mesenteric artery of a rabbit were examined.
(§2) The mesenteric artery relaxing activity is shown by the […] (μM) of a drug required to induce 50% of the maximum relaxation, and the platelet aggregation inhibiting activity, by the concentration (μM) of a drug required to inhibit collagen-induced platelet aggregation to an extent of 50%.

[6] = system: human platelet aggregation; assay: collagen-induced human platelet aggregation inhibiting activity, in vitro; assay type: cell-based; details: human platelets, read-out: Platelet aggregation inhibiting activity (50% inhibition)
From the text: as §1, §2

amygdaloid nucleus = assay: local cerebral blood flow, amygdaloid nucleus (hydrogen gas clearance method); assay type: in vivo, rabbit; details: 0.5 mg/kg i.v.; until 1 hour after administration; based on blood flow before administration
Procedure: (a) Activity on the hippocampus and amygdaloid nucleus (by the hydrogen gas clearance method) Rabbits having a body weight of about 3 kg, five per group, were used. A tracheal cannula was inserted into each rabbit under sodium pentobarbital anesthesia, and under artificial respiration, gallamine triethiodide was intravenously administered in a dose of 2 mg/kg to immobilize it. The animal was then fixed to a brain stereotaxic apparatus (Todai Noken type). Gallamine triethiodide was also intramuscularly administered in a dose of 3 mg/kg every one hour.
The local cerebral blood flow was measured by the hydrogen gas clearance method (UH meter, PHG-201, manufactured by Unique Medical Co., Ltd.). Platinum electrodes having a diameter of 300 μm and coated with an epoxy resin were inserted in the hippocampus (P:4, L:5, H:+5) and the amygdaloid nucleus (A:2, L:6, H:-6) in accordance with the brain atlas of Sawyer et al. An indifferent electrode was placed under the skin of the head and fixed there. […] The resulting curve was plotted semilogarithmically, and the half-time period (T 1/2) was determined by the initial slope method. The blood flow was calculated from the following equation.
The blood flow was measured every thirty minutes. […]

cerebral cortex = assay: blood flow in the cerebral cortex (cross thermocouple method); assay type: in vivo, rabbit; details: 0.5 mg/kg via retroauricular vein
Procedure: Male rabbits having a body weight of about 3 kg, five per group, were used. Under sodium pentobarbital anesthesia, a tracheal cannula was inserted into each rabbits, and under artificial respiration, 2 mg of gallamine triethiodide was intravenously injected to immobilize the animals. The animals were each fixed to a brain stereotaxic apparatus (Todai Noken type). An element of the double needle type (WN-301, manufactured by Unique Medical Co.) was inserted into the frontal contex through a hole provided by a dental drill, and variations in potential were recorded. After the blood flow was stabilized, the test drug and a control drug were each administered through a cannula inserted into the retroauricular vein of the right ear. The percent increase in the blood flow was calculated by taking the blood flow at death as 0 and the blood flow before drug administration as 100%. When the compound A (0.5 mg/kg) was administered as the test drug, the blood flow increased by 10 to 20%. But when the control drug, morsydmine, (0.5 mg/kg) was administered, no increase in the blood flow was noted.

Compound: CCOC(=O)[N-]c1c[n+](N2CCN(CCCCC(=O)c3ccccc3)CC2)no1 [Compound A, N-carboethoxy-3-[4-(4-benzoylbutyl)piperazin-1-yl]sydnonimine]
- solubility ([1]; 0.001 n hydrochloric acid, 0.001 N (pH 3), read-out: Solubility in dilute hydrochloric acid): 2300 µg/mL (≈ 5.73 mM)
- solubility ([1]; 0.01 n hydrochloric acid, 0.01 N (pH 2), read-out: Solubility in dilute hydrochloric acid): 6300 µg/mL (≈ 15.7 mM)
- solubility ([1]; 0.1 n hydrochloric acid, 0.1 N (pH 1), read-out: Solubility in dilute hydrochloric acid): 10400 µg/mL (≈ 25.9 mM)
- solubility ([1]; carmody's buffer, pH 2, read-out: Solubility in Carmody's buffer): 15600 µg/mL (≈ 38.9 mM)
- solubility ([1]; carmody's buffer, pH 3, read-out: Solubility in Carmody's buffer): 9300 µg/mL (≈ 23.2 mM)
- solubility ([1]; carmody's buffer, pH 4, read-out: Solubility in Carmody's buffer): 4400 µg/mL (≈ 11 mM)
- solubility ([1]; carmody's buffer, pH 5, read-out: Solubility in Carmody's buffer): 1000 µg/mL (≈ 2.49 mM)
- solubility ([1]; carmody's buffer, pH 6, read-out: Solubility in Carmody's buffer): 400 µg/mL (≈ 0.996 mM)
- solubility ([1]; carmody's buffer, pH 7, read-out: Solubility in Carmody's buffer): 100 µg/mL (≈ 0.249 mM)
- solubility ([1]; water, read-out: Solubility in water): 10 µg/mL (≈ 0.0249 mM)

Compound: CCOC(=O)[N-]c1c[n+](N2CCN(CCCCC(=O)c3ccccc3)CC2)no1 [Compound A]
- LD50 ([2]; intravenous administration): 91 mg/kg
- LD50 ([2]; oral administration): 750 mg/kg
- LD50 ([2]; sc, subcutaneous administration): 350 mg/kg
- activation at 100 µg/mL ([3]; Cavia porcellus, read-out: increase in the coronary blood flow): 14%

Compound: CCOC(=O)[N-]c1c[n+](N2CCN(CCCCC(=O)c3ccccc3)CC2)no1 [Hydrochloride, N-ethoxycarbonyl-3-[4-(4-benzoylbutyl)-piperazin-1-yl]sydnonimine]
- Solubility in water [4]: 0.89%

Compound: CCOC(=O)[N-]c1c[n+](N2CCN(CCCCC(=O)c3ccccc3)CC2)no1 [Maleate, N-ethoxycarbonyl-3-[4-(4-benzoylbutyl)-piperazin-1-yl]sydnonimine]
- Solubility in water [4]: 0.94%

Compound: CCOC(=O)[N-]c1c[n+](N2CCN(CCCCC(=O)c3ccccc3)CC2)no1 [Nitrate, N-ethoxycarbonyl-3-[4-(4-benzoylbutyl)-piperazin-1-yl]sydnonimine]
- Solubility in water [4]: 0.43%

Compound: CCOC(=O)[N-]c1c[n+](N2CCN(CCCCC(=O)c3ccccc3)CC2)no1 [Oxalate, N-ethoxycarbonyl-3-[4-(4-benzoylbutyl)-piperazin-1-yl]sydnonimine]
- Solubility in water [4]: 0.46%

- EC50 [5]: 160 nM
- IC50 [6]: 140 nM
Compound: [NH-]c1c[n+](N2CCN(CC(=O)c3ccccc3)CC2)no1 [R = H, n = 0, 3-[4-(benzoylmethyl)piperazin-1-yl]sydnonimine dihydrochloride]

- EC50 [5]: 2300 nM
- IC50 [6]: 5400 nM
Compound: [NH-]c1c[n+](N2CCN(CCCC(=O)c3ccccc3)CC2)no1 [R = H, n = 2]

- EC50 [5]: 200 nM
- IC50 [6]: 3400 nM
Compound: [NH-]c1c[n+](N2CCN(CCCCC(=O)c3ccccc3)CC2)no1 [R = H, n = 3, 3-[4-(4-benzoylbutyl)piperazin-1-yl]sydnonimine dihydrochloride]

- EC50 [5]: 3000 nM
- IC50 [6]: 6300 nM
Compound: [NH-]c1c[n+](N2CCN(CCCCCC(=O)c3ccccc3)CC2)no1 [R = H, n = 4]

- EC50 [5]: 120 nM
- IC50 [6]: 940 nM
Compound: [NH-]c1c[n+](N2CCN(CCCCCCC(=O)c3ccccc3)CC2)no1 [R = H, n = 5]

- EC50 [5]: 58 nM
- IC50 [6]: 28 nM
Compound: [NH-]c1c[n+](N2CCN(CCCCCCCCC(=O)c3ccccc3)CC2)no1 [R = H, n = 7, 3-[4-(8-benzoyloctyl)piperazin-1-yl]sydnonimine dihydrochloride]

- IC50 [6]: 11000 nM
Compound: CC(C)CC(CCCN1CCN([n+]2cc([NH-])on2)CC1)C(=O)c1ccccc1 (stereo not shown) [R = iso-C4 H9, n = 3, 3-[4-(benzoyl-6-methylheptyl)piperazin-1-yl]sydnonimine dihydrochloride]

Compound: CCOC(=O)[N-]c1c[n+](N2CCOCC2)no1 [morsydmine]
- increase of local cerebral blood flow at the amygdaloid nucleus (amygdaloid nucleus): about 15%
- blood flow in the cerebral cortex, result in words (cerebral cortex): no increase
- coronary blood flow, result in words [3]: no increase
